In publication PMC10892093 (Pharmaceutics, 2024):
Read-outs that look alike come from different tables or passages of the source.

How the values were obtained:
[1] = tested on: human liver microsomes (HLM); assay: Inhibition of R- and S-oxazepam glucuronidation in human liver microsomes
Procedure: (§1) A Waters Corp BEH C18 Acquity UPLC column (1.7 µM, 2.1 × 100 mm) was used at a constant temperature of 40 °C for chromatographic separation. An elution gradient was used for 6.5 min with mobile phases A (5 mM ammonium formate) and B (100% methanol) under the following conditions: 90% A for 0.5 min, followed by a linear gradient for 3 min to 60% A, 1 min at 5% A, and re-equilibration for 1 min at 90% A.
(§2) The reaction was initiated by the addition of 4 mM UDPGA as the cofactor and incubated for 2 h at 37 °C. The reaction was terminated by adding 30 µL of an ice-cold stop solution (acetonitrile/methanol; 1:1). The reaction mixtures were centrifuged at 17,000× g for 30 min at 4 °C, and the supernatant was transferred to UPLC sample glass vial for analysis using UPLC–MS/MS (described above). […] As a positive control for inhibition assays, ketoconazole (10 μM and 100 µM) was used as a potential inhibitor of the UGTs 1A9, 2B7, and 2B15. Reactions containing only the cannabinoid vehicle (3% methanol) and without any inhibitor (cannabinoids) were used as a baseline reaction for 100% enzyme activity, while a reaction without UDPGA was used as a negative control. All experiments were performed in three independent experiments.
(§3) Determination of IC50 and Ki Values. […] The nonspecific binding constants (fu,inc) for cannabinoids in HEK293 microsomes, HLM, and HKM were previously determined and used to calculate the inhibition by unbound (‘free’) cannabinoid in each reaction. A nonlinear regression analysis and the following equation were used to calculate the IC50 values:(1) y = Bottom +Top − Bottom / 1 + 10^x − LogIC50A where ‘Bottom’ is the maximum observed inhibition (lowest percent activity) and ‘Top’ is the minimum observed inhibition (highest percent activity) for a given cannabinoid.
The inhibition constant (Ki) was generated from the in vitro IC50 values assuming competitive inhibition (based on the Cheng–Prusoff equation; [49]). Considering that there have been no reports of the irreversible inhibition (e.g., mechanism-based inhibition) of UGTs, competitive inhibition was assumed as the worst-case scenario (highest inhibition) among all feasible types of reversible inhibitions. The substrate concentration used in the incubations was below the reported Km; therefore, the Ki values were predicted using Equation (2):(2) Ki=IC50/S/Km+1 where Km is Michaelis–Menten constant for the substrate, S is the substrate concentration, and IC50 is half-maximal inhibitory concentration.

[2] = cited from earlier work
[3] = target: T1, UGT2B15 (Homo sapiens, UniProt P54855); assay: Inhibition of S-oxazepam glucuronidation in rUGT2B15 homogenate/microsomes (UGT-overexpressing HEK293); format: biochemical; details: for IC50: rUGT2B15
T1 construct: expressed in transfected cells; cell homogenate
T1 sequence (P54855 24-530): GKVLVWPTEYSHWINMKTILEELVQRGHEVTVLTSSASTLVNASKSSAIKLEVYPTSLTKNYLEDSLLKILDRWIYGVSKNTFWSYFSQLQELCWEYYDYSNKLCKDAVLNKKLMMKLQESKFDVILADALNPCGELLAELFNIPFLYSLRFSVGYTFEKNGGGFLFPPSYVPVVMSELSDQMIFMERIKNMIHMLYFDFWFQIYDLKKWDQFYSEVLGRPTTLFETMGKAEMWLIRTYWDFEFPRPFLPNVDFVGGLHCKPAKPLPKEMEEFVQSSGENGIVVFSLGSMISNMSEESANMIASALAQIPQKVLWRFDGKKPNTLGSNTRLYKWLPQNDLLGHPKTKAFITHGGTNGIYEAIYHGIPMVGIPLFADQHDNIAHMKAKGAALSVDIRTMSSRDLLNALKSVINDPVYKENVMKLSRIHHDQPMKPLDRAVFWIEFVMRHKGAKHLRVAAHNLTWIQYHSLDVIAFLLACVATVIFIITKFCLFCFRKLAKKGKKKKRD
Procedure: (§4) Human embryonic kidney cells (HEK293) stably overexpressing the single UGTs 1A9, 2B7, and 2B15 have been previously established and described. Cells were grown in DMEM supplemented with 350 μg/mL of geneticin and 10% FBS and harvested in PBS. Microsomal fractions of UGT-overexpressing cell lines were prepared by differential centrifugation using previously described protocols. Briefly, cell homogenates were prepared by resuspending pelleted cells in PBS, followed by five rounds of freeze–thaw cycles prior to homogenization. Recombinant microsomes (rUGTs) were prepared by centrifuging the cell homogenate at a low speed (9000× g for 30 min) followed by ultracentrifugation (34,000× g for 60 min), with the total protein subsequently determined using a BCA assay. Recombinant microsomes (UGT1A9 and 2B7) and homogenates (UGT2B15) were used for inhibition studies.
as §1, §2, §3

[4] = target: T2, UGT1A9 (Homo sapiens, UniProt O60656); assay: Inhibition of R-oxazepam glucuronidation in rUGT1A9 microsomes (UGT-overexpressing HEK293); format: biochemical; details: for IC50: rUGT1A9
T2 construct: expressed in transfected cells; microsomal fraction
T2 sequence (O60656 26-530): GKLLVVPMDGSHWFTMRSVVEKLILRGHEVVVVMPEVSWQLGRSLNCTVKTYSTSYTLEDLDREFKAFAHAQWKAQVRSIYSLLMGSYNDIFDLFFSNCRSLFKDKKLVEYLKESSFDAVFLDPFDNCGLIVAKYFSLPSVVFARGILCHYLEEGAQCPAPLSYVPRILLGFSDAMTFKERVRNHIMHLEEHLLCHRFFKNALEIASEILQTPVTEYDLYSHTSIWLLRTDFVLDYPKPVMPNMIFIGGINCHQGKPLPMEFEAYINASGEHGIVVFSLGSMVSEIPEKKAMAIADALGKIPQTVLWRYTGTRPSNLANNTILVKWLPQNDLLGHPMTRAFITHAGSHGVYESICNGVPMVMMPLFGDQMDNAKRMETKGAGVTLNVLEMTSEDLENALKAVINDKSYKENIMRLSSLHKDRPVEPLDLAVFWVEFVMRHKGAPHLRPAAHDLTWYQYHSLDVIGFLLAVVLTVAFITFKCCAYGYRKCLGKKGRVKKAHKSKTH
Procedure: as §4, §1, §2, §3

[5] = cited from earlier work; remark: listed apart in the source
[6] = read-out: IC50, R-Oxazepam Glucuronide
[7] = read-out: IC50, S-Oxazepam Glucuronide
[8] = read-out: IC50,u, R-Oxazepam Glucuronide, IC50 corrected with fu,inc
[9] = read-out: Ki, R-Oxazepam Glucuronide, generated from IC50 assuming competitive inhibition
[10] = read-out: Ki, S-Oxazepam Glucuronide, generated from IC50 assuming competitive inhibition
[11] = read-out: Ki,u, R-Oxazepam Glucuronide, Ki corrected with fu,inc
[12] = read-out: Ki,u, S-Oxazepam Glucuronide, Ki corrected with fu,inc
[13] = IC50 corrected with fu,inc, read-out: IC50,u, S-Oxazepam Glucuronide
[14] = IC50 corrected with fu,inc, read-out: IC50,u, R-Oxazepam Glucuronide
[15] = rUGT1A9 microsomes, 100 µM cannabinoid, vs control without cannabinoid
[16] = overexpressing HEK293 cell lines

Molecule | IC50 [1, 6] | IC50 [1, 7] | IC50 [1, 8] | Ki [1, 9] | Ki [1, 10] | Ki [1, 11] | Ki [1, 12] | Cmax ([2]; THC dose 20 mg, oral) | Cmax ([2]; THC dose 25 mg, inhalation) | Cmax ([2]; THC dose 70 mg, inhalation) | Cmax ([2]; THC dose 100 mg, inhalation) | Cmax ([2]; THC dose 130 mg, oral) | Cmax ([2]; THC dose 160 mg, oral) | Cmax ([2]; after smoking) | IC50 [3, 13] | IC50 [3, 7] | IC50 [4, 14] | unbound fraction (fu,inc) ([5]; incubation mixtures with HKM) | unbound fraction (fu,inc) ([5]; incubation mixtures with HLM) | unbound fraction (fu,inc) [5, 16] | further results
11-hydroxy-Δ^9-tetrahydrocannabinol [11-OH-THC] | 18 ± 5 µM | 41 ± 25 µM | 1.7 ± 0.47 µM | 18 ± 4.9 µM | 34 ± 21 µM | 1.7 ± 0.46 µM | 3.2 ± 2 µM | 15 nM | 12 nM | 32 nM | 46 nM | 100 nM | 120 nM | 90 nM | 4.5 ± 2.1 µM | 58 ± 27 µM | 1 ± 0.6 µM | 0.094 ± 0.014 | 0.094 ± 0.014 | 0.078 ± 0.042 | IC50 ([1]; read-out: IC50,u, S-Oxazepam Glucuronide, IC50 corrected with fu,inc): 3.9 ± 2.4 µM; Cmax ([2]; oral ingestion of 50 mg THC): 160 nM; IC50 [4, 6]: 13 ± 7.7 µM; Inhibition of R-oxazepam glucuronide formation [4, 15]: 87%
C=C(C)[C@@H]1CCC(C)=C[C@H]1c1c(O)cc(CCCCC)cc1O [CBD, cannabidiol] | – | – | – | 16 ± 7.4 µM | 72 ± 32 µM | 0.82 ± 0.38 µM | 3.7 ± 1.6 µM | – | – | – | – | – | – | – | 2 ± 0.35 µM | 54 ± 9 µM | 0.053 ± 0.011 µM | 0.062 ± 0.009 | 0.051 ± 0.008 | 0.038 ± 0.002 | Cmax ([2]; 1500 mg dose of CBD following a high-fat diet): 4400 nM; Cmax ([2]; CBD 2 mg, inhalation): 6.4 nM; Cmax ([2]; CBD 19 mg, inhalation): 350 nM; Cmax ([2]; CBD 70 mg, oral): 89 nM; Cmax ([2]; CBD 700 mg, oral): 890 nM; Cmax ([2]; CBD 2000 mg, oral): 2500 nM; inhibition at 2 h, 10 µM ([3]; human, pH 7.4, rUGT2B15 microsomes, 10 µM cannabinoid, range over the four cannabinoids, read-out: Inhibition of S-oxazepam glucuronide formation): 40 to 66%; inhibition at 2 h, 100 µM ([3]; human, pH 7.4, rUGT2B15 microsomes, 100 µM cannabinoid, range over the four cannabinoids, read-out: Inhibition of S-oxazepam glucuronide formation): 83 to 91%; inhibition at 2 h, 10 µM ([4]; human, pH 7.4, rUGT1A9 microsomes, 10 µM cannabinoid, vs control without cannabinoid, read-out: Inhibition of R-oxazepam glucuronide formation): 98%; inhibition at 2 h, 100 µM ([4]; human, pH 7.4, rUGT1A9 microsomes, 100 µM cannabinoid, vs control without cannabinoid, read-out: Inhibition of R-oxazepam glucuronide formation): 99%; IC50 [4, 6]: 1.4 ± 0.29 µM
CCCCCc1cc(O)c2c(c1)OC(C)(C)[C@@H]1CCC(C)=C[C@@H]21 [THC, Δ^9-tetrahydrocannabinol] | 34 ± 16 µM | > 100 µM | 1.6 ± 0.77 µM | 33 ± 15 µM | > 83 µM | 1.6 ± 0.74 µM | > 3.2 µM | 30 nM | 250 nM | 700 nM | 990 nM | 200 nM | 240 nM | 640 nM | 0.84 ± 0.42 µM | 20 ± 10 µM | 0.5 ± 0.31 µM | 0.052 ± 0.005 | 0.048 ± 0.002 | 0.042 ± 0.003 | Cmax ([2]; oral ingestion of 50 mg THC): 530 nM; Cmax ([2]; smoking cannabis cigarettes with 3.55% THC): 515 nM; Inhibition of R-oxazepam glucuronide formation [4, 15]: 83%
